Laboratory results reported in ChEMBL document CHEMBL1201862, “PubChem BioAssay data set” (2004).
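Method: 48-hour compound exposure of cells in 96-well plates, five concentrations, linear interpolation of endpoints. At the GI50, growth is halved.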 The source made the active and inactive calls. Cut-off read from the data, not from the text of the source: active = GI50 up to about 1.1 µM and inactive = higher.

What was measured:
Assay in all cases: NCI-60 cell line screen, 48 h
SNB-75 = test system: SNB-75
Malme-3M = test system: Malme-3M
A549 = test system: A549
OVCAR-8 = test system: OVCAR-8
MOLT-4 = test system: MOLT-4
HCT-15 = test system: HCT-15
HT-29 = test system: HT-29
CAKI-1 = test system: CAKI-1
U-251 = test system: U-251
SW-620 = test system: SW-620
UACC-62 = test system: UACC-62
OVCAR-3 = test system: OVCAR-3
786-0 = test system: 786-0
A498 = test system: A498
NCI/ADR-RES = test system: NCI/ADR-RES
UACC-257 = test system: UACC-257
TK-10 = test system: TK-10
MCF7 = test system: MCF7
HCC 2998 = test system: HCC 2998
MDA-N = test system: MDA-N

Measured: GI50

COc1ccc2nc3ccc(OC)cc3c([S+]([O-])Cc3ccccc3)c2c1 (stereo not given)
6.61 µM: HCT-15
inactive: SNB-75 15.5 µM | Malme-3M 2.42 µM | A549 19.1 µM | OVCAR-8 3.48 µM | MOLT-4 2.79 µM | HT-29 3.05 µM | CAKI-1 12.8 µM | U-251 20.5 µM | SW-620 3.89 µM | UACC-62 14.8 µM | OVCAR-3 13.1 µM | 786-0 2.21 µM | A498 17 µM | NCI/ADR-RES 20.3 µM | UACC-257 7.8 µM | TK-10 7.71 µM | MCF7 2.3 µM | HCC 2998 19.4 µM

CCOc1cc(NC(C)=O)ccc1C(=O)NN1C(=O)C(Oc2ccccc2)C1c1ccc(O)c(OC)c1 (stereo not given)
32.8 µM: HCT-15
inactive: SNB-75 44.6 µM | A549 56.5 µM | OVCAR-8 22.1 µM | MOLT-4 12.9 µM | MDA-N 33.6 µM | HT-29 36.7 µM | CAKI-1 54.8 µM | U-251 48.9 µM | SW-620 77.4 µM | OVCAR-3 41.5 µM | 786-0 43.8 µM | NCI/ADR-RES 37.4 µM | UACC-257 47 µM | TK-10 40.8 µM | MCF7 39.5 µM

CCCCCCCC(=O)OCC1OC(n2cc(F)c(=O)[nH]c2=O)C(NC(=O)OCc2ccccc2)C(O)C1O (stereo not given)
> 100 µM: HCT-15
inactive: SNB-75 29.3 µM | Malme-3M > 100 µM | A549 > 100 µM | OVCAR-8 > 100 µM | MOLT-4 27.9 µM | HT-29 > 100 µM | CAKI-1 > 100 µM | U-251 80.2 µM | SW-620 > 100 µM | UACC-62 32.1 µM | OVCAR-3 > 100 µM | 786-0 > 100 µM | A498 > 100 µM | UACC-257 > 100 µM | TK-10 > 100 µM | HCC 2998 19.5 µM

Cc1nc(N)sc1C(=O)/C=C/c1ccc([N+](=O)[O-])cc1
inactive: SNB-75 64.6 µM | Malme-3M > 100 µM | A549 > 100 µM | OVCAR-8 > 100 µM | MOLT-4 > 100 µM | HT-29 > 100 µM | CAKI-1 > 100 µM | U-251 > 100 µM | SW-620 > 100 µM | UACC-62 > 100 µM | OVCAR-3 > 100 µM | 786-0 > 100 µM | A498 > 100 µM | UACC-257 > 100 µM | TK-10 > 100 µM | HCC 2998 > 100 µM
> 100 µM: HCT-15

CC(=O)OC1=C(CC(C)(C)C)C(=O)c2ccccc2C1=O
31.8 µM: HCT-15
inactive: SNB-75 27.4 µM | OVCAR-8 27.2 µM | HT-29 33.7 µM | CAKI-1 48.4 µM | U-251 44.8 µM | SW-620 33 µM | UACC-62 32.1 µM | 786-0 39.6 µM | A498 13.5 µM | NCI/ADR-RES 18.1 µM | UACC-257 38.5 µM | TK-10 68.9 µM | MCF7 39.5 µM | HCC 2998 40.2 µM

COC1(C)Cc2c(c(C)c(O)c3c2C(=O)C=C(Cl)C3=O)O1 (stereo not given)
45.8 µM: HCT-15
inactive: SNB-75 > 100 µM | Malme-3M 13.5 µM | A549 > 100 µM | OVCAR-8 40.2 µM | MOLT-4 7.5 µM | MDA-N 34.9 µM | HT-29 28.9 µM | CAKI-1 20.4 µM | U-251 > 75.5 µM | SW-620 19.8 µM | UACC-62 35.8 µM | OVCAR-3 44.2 µM | 786-0 > 100 µM | A498 > 100 µM | UACC-257 > 56.5 µM | TK-10 22.7 µM | MCF7 41.8 µM | HCC 2998 > 100 µM

O=C(Cn1c(C(=O)c2ccccc2)nc2ccccc21)c1ccccc1
inactive: SNB-75 > 100 µM | Malme-3M > 96.2 µM | A549 > 96.4 µM | OVCAR-8 > 100 µM | MOLT-4 > 100 µM | HT-29 19.2 µM | CAKI-1 > 100 µM | U-251 > 77.1 µM | SW-620 4.85 µM | UACC-62 > 56.6 µM | OVCAR-3 > 100 µM | 786-0 > 63.8 µM | A498 > 100 µM | NCI/ADR-RES > 100 µM | UACC-257 > 100 µM | TK-10 > 100 µM | MCF7 > 100 µM | HCC 2998 > 100 µM
> 100 µM: HCT-15

CCOC(=O)c1c2ccc(/C=C/C(=O)OC)ccc-2c(C(=O)OCC)c1N
inactive: SNB-75 > 100 µM | Malme-3M > 100 µM | A549 > 100 µM | MOLT-4 > 100 µM | HT-29 > 100 µM | CAKI-1 > 100 µM | SW-620 > 100 µM | UACC-62 > 100 µM | OVCAR-3 > 100 µM | 786-0 > 100 µM | A498 6.52 µM | UACC-257 > 100 µM | TK-10 > 100 µM | HCC 2998 > 100 µM
> 100 µM: HCT-15

O=C(/C=C/c1ccc(Cl)cc1)c1ccc(Cl)c(Cl)c1
inactive: SNB-75 19.6 µM | Malme-3M 25.1 µM | A549 23.7 µM | OVCAR-8 20.6 µM | MOLT-4 20.5 µM | HT-29 48 µM | CAKI-1 18.1 µM | U-251 11.2 µM | SW-620 5.41 µM | UACC-62 23.7 µM | OVCAR-3 21.7 µM | 786-0 25.5 µM | A498 34.4 µM | UACC-257 29.6 µM | TK-10 > 10 µM | HCC 2998 30.3 µM
26 µM: HCT-15

O[C@H]1[C@H](O)[C@H](O)CN2CCC[C@@H](O)[C@H]12
> 100 µM: HCT-15
inactive: SNB-75 81.1 µM | A549 > 100 µM | OVCAR-8 > 100 µM | MOLT-4 > 100 µM | HT-29 > 100 µM | CAKI-1 > 100 µM | U-251 > 100 µM | SW-620 > 100 µM | UACC-62 > 100 µM | OVCAR-3 > 100 µM | 786-0 > 100 µM | A498 > 100 µM | NCI/ADR-RES > 100 µM | UACC-257 > 100 µM | TK-10 > 100 µM | MCF7 > 100 µM | HCC 2998 > 100 µM

[O-][n+]1c2ccccc2[n+]([O-])c2ccccc21
inactive: SNB-75 > 100 µM | Malme-3M > 100 µM | A549 38 µM | OVCAR-8 86.3 µM | MOLT-4 2.74 µM | HT-29 86.3 µM | CAKI-1 > 100 µM | U-251 > 100 µM | SW-620 > 100 µM | UACC-62 > 100 µM | 786-0 > 100 µM | A498 > 100 µM | NCI/ADR-RES > 100 µM | UACC-257 > 100 µM | TK-10 > 100 µM | MCF7 48.1 µM
68.2 µM: HCT-15

COc1cc(Cl)cc(N(O)C(C)=O)c1OCc1ccccc1
inactive: SNB-75 24.8 µM | Malme-3M > 100 µM | A549 68.5 µM | OVCAR-8 70.8 µM | MOLT-4 50.4 µM | HT-29 64.6 µM | CAKI-1 > 100 µM | U-251 80.4 µM | SW-620 > 100 µM | UACC-62 49.7 µM | OVCAR-3 74.6 µM | 786-0 61.8 µM | A498 > 100 µM | UACC-257 > 100 µM | TK-10 79.4 µM | HCC 2998 > 100 µM
51.4 µM: HCT-15

C[N+](C)(C)CC(=O)N/N=C(\C(=O)Nc1ccc(Cl)cc1)C1C(=O)N(c2ccccc2)N=C1N (stereo not given)
inactive: SNB-75 > 100 µM | Malme-3M > 100 µM | A549 > 100 µM | OVCAR-8 > 100 µM | MOLT-4 > 100 µM | HT-29 > 100 µM | CAKI-1 > 100 µM | U-251 > 100 µM | SW-620 > 100 µM | UACC-62 > 100 µM | OVCAR-3 > 100 µM | 786-0 > 100 µM | A498 > 100 µM | UACC-257 > 100 µM | TK-10 > 100 µM | HCC 2998 > 100 µM
> 100 µM: HCT-15

COc1ccc(NC(=O)CC/C(CC(=O)C(C)(C)C)=N\NC(=O)C(=O)NN)cc1
inactive: SNB-75 > 100 µM | Malme-3M > 100 µM | A549 > 100 µM | MOLT-4 > 100 µM | HT-29 > 100 µM | CAKI-1 > 100 µM | U-251 > 100 µM | SW-620 > 100 µM | UACC-62 > 100 µM | OVCAR-3 > 100 µM | 786-0 > 100 µM | A498 > 100 µM | UACC-257 > 100 µM | TK-10 > 100 µM | HCC 2998 > 100 µM
> 100 µM: HCT-15

COc1ccc2c(c1)c(=O)c1c(NCCCN(C)CCCNc3ccc4c(=O)n(CCN(C)C)c(=O)n5c6ccc(OC)cc6c(=O)c3c45)ccc3c(=O)n(CCN(C)C)c(=O)n2c31
< 0.0258 µM: HCT-15
active: SNB-75 < 0.0175 µM | Malme-3M 0.484 µM | A549 < 0.01 µM | OVCAR-8 < 0.01 µM | MOLT-4 < 0.01 µM | MDA-N 0.17 µM | HT-29 < 0.01 µM | CAKI-1 < 0.015 µM | U-251 < 0.01 µM | SW-620 < 0.01 µM | UACC-62 0.305 µM | OVCAR-3 0.138 µM | 786-0 < 0.01 µM | A498 0.305 µM | UACC-257 0.352 µM | TK-10 0.119 µM | MCF7 < 0.01 µM | HCC 2998 < 0.01 µM

C#C[C@]1(O)CC[C@H]2[C@@H]3CCc4cc(O)ccc4[C@H]3CC[C@@]21C [ETHINYL ESTRADIOL]
inactive: SNB-75 12.6 µM | Malme-3M 30.5 µM | A549 29.1 µM | OVCAR-8 30.2 µM | MOLT-4 18.6 µM | HT-29 13 µM | CAKI-1 52.6 µM | U-251 7.8 µM | SW-620 16.1 µM | UACC-62 34.3 µM | OVCAR-3 28 µM | 786-0 34.6 µM | A498 20.1 µM | UACC-257 41 µM | TK-10 43.9 µM | HCC 2998 18.3 µM
15.4 µM: HCT-15
